Test results published in PMC10782944 (Science immunology, 2023).

Key:
[1] = system: 10LH; experiment: SPR of peptide-loaded HLA-A*24:02 flowed over 10LH-biotin on a streptavidin chip; assay type: binding; conditions: peptide loaded on HLA-A*24:02
[2] = target: HLA-B*08:01 (Homo sapiens, UniProt P01889, A93T/A95T/D138N/E176V/E187T/K202T/Q94N/R180D/S35A/V36M/Y33D/Y91F); experiment: pHLA complex formation of PHOX2B peptide with HLA-B*08:01; conditions: HLA-B*08:01, despite NetMHCpan 4.1 prediction

Sequence | dissociation rate (qualitative) [1] | formation of stable complexes with the HLA [2]
LYLPVRVLI [ATG2A] | slow dissociation rate | 
QYNPIRTTF [PHOX2B] |  | did not form stable complexes
